Several values for one entry are separate records, joined by “and”; a condition that tells them apart may be missing. Equal entries are not always repeated.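 Where inhibition never reached the appropriate level, the endpoint shown equals the highest concentration tested. Otherwise, values were interpolated linearly from a five-concentration, 48-hour dose response in 96-well plates. GI50: concentration for 50% inhibition of growth. At the TGI there is no net growth.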
What was measured:
Assay in all cases: growth of human tumour cells (NCI), 48 h
M14 melanoma = tested on: M14 melanoma
U251 CNS = tested on: U251 CNS
SF-268 CNS = tested on: SF-268 CNS
ACHN renal = tested on: ACHN renal
MDA-MB-231 breast = tested on: MDA-MB-231 breast
UACC-62 melanoma = tested on: UACC-62 melanoma
TK-10 renal = tested on: TK-10 renal
SK-MEL-5 melanoma = tested on: SK-MEL-5 melanoma
T-47D breast = tested on: T-47D breast
SNB-19 CNS = tested on: SNB-19 CNS

| Compound | GI50 (M14 melanoma) | TGI (M14 melanoma) | GI50 (U251 CNS) | TGI (U251 CNS) | GI50 (SF-268 CNS) | TGI (SF-268 CNS) | GI50 (ACHN renal) | TGI (ACHN renal) [µM] | GI50 (MDA-MB-231 breast) | TGI (MDA-MB-231 breast) | GI50 (UACC-62 melanoma) | TGI (UACC-62 melanoma) | GI50 (TK-10 renal) | TGI (TK-10 renal) | GI50 (SK-MEL-5 melanoma) | TGI (SK-MEL-5 melanoma) | GI50 (T-47D breast) | TGI (T-47D breast) | GI50 (SNB-19 CNS) | TGI (SNB-19 CNS) [µM] |
| --- | --- | --- | --- | --- | --- | --- | --- | --- | --- | --- | --- | --- | --- | --- | --- | --- | --- | --- | --- | --- |
| CN(C)c1ccc(C(=N)c2ccc(N(C)C)cc2)cc1 | 2.13 µM and 2.95 µM | 10.8 µM and 16.8 µM | 3.54 µM and 3.11 µM | 18.9 µM and 17.7 µM | 4.64 µM and 11.6 µM | 43.4 µM and > 100 µM | 6.5 µM and 7.39 µM | > 100 | 5.77 µM and 7.67 µM | 47.5 µM and 30.9 µM | 3.24 µM and 5.32 µM | 17.6 µM and 23.9 µM | 4.47 µM and 7.22 µM | 38.9 µM and 91.6 µM | 2.74 µM and 2.92 µM | 10.9 µM and 13.2 µM | 5.51 µM and 3.42 µM | 44.8 µM and 29.2 µM | 4.38 µM and 16 µM | > 100 |
| CC(CN1CC(=O)NC(=O)C1)N1CC(=O)NC(=O)C1 (centres undefined) |  | > 750 µM |  | > 750 µM |  | > 750 µM |  | > 750 |  | > 750 µM |  | > 686 µM |  | > 702 µM |  | > 750 µM |  | > 750 µM |  | > 750 |
| CN(C)C(=S)/N=c1\ssc(=S)n1Cc1cccs1 |  | > 100 µM |  | 69.9 µM |  | > 100 µM |  | > 100 |  | > 100 µM |  | > 56.7 µM |  | > 81.6 µM |  | > 16.1 µM |  | > 100 µM |  | > 90.9 |
| CCOc1cc(C(=O)O)c2c(ccc3ccc(OC)c(OC)c32)c1OC |  | > 100 µM |  | > 100 µM |  | > 100 µM |  | > 100 |  | > 100 µM |  | > 100 µM |  | > 100 µM |  | > 100 µM |  | > 100 µM |  | > 100 |
| COc1cc(OC)cc(-c2nc3sccn3c2/C=N/N=C(N)N)c1 | 6.96 µM | 13.4 µM | 5.2 µM | 11.1 µM | 10.2 µM | 27.2 µM | 8.58 µM | 17.5 | 6.91 µM | 13.6 µM | 8.03 µM | 14.8 µM | 6.29 µM | 12.6 µM | 8.34 µM | 15.2 µM | 7.23 µM | 17.6 µM | 9.29 µM | 19.3 |
| O=C1NCN(c2ccccc2)C12CCN(CCCC(c1ccc(F)cc1)c1ccc(F)cc1)CC2 | 1.67 µM | 3.18 µM | 1.55 µM | 2.91 µM | 2.04 µM | 4.78 µM | 2.79 µM | 7.23 | 1.89 µM | 3.88 µM | 1.68 µM | 3.15 µM | 1.79 µM | 4.11 µM | 1.6 µM | 2.97 µM | 2.43 µM | 6.49 µM | 2.99 µM | 12.8 |
| c1cc(CN2CCCNCCNCCCNCC2)ccc1CN1CCCNCCNCCCNCC1 | > 100 µM | > 100 µM | > 100 µM | > 100 µM | > 100 µM | > 100 µM | > 100 µM | > 100 | > 100 µM | > 100 µM | > 100 µM | > 100 µM | > 100 µM | > 100 µM | > 100 µM | > 100 µM | > 100 µM | > 100 µM | > 100 µM | > 100 |
| c1ccc2cc(Cn3cc[n+](Cc4ccc5ccccc5c4)c3)ccc2c1 | 1.43 µM | 8.34 µM | 1.5 µM | 11 µM | 1.28 µM | 11.1 µM | 13.7 µM | 27.6 | 0.729 µM | 2.53 µM | 0.478 µM | 1.98 µM | 3.32 µM | 14.3 µM | 0.258 µM | 0.916 µM | 0.385 µM | 5.24 µM | 0.979 µM | 6.97 |
| O=C(O)C(Br)C(Br)C(=O)O (centres undefined) |  | > 100 µM |  | > 100 µM |  | > 100 µM |  | > 100 |  | > 100 µM |  | > 100 µM |  | > 100 µM |  | > 100 µM |  |  |  | > 100 |
| CCC#CC[C@H](O)C/C=C1/C(=O)C=C[C@@H]1C/C=C\CCCC(=O)OC | 1.32 µM | 5.12 µM | 0.695 µM | 1.99 µM | 2.05 µM | 9.22 µM | 0.947 µM | 2.07 | 1.95 µM | 7.78 µM | 1.04 µM | 2.82 µM | 1.66 µM | 3.97 µM | 0.767 µM | 1.46 µM |  |  | 3.29 µM | 10.3 |
| CCN(CC)CCCOc1ccc2ncnc(Nc3ccc(Oc4cccc(C(F)(F)F)c4)c(Cl)c3)c2c1 |  |  |  |  | 1.44 µM | 3.07 µM | 1.07 µM | 2.26 | 1.79 µM | 3.24 µM | 1.76 µM | 3.22 µM | 1.14 µM | 2.56 µM |  |  | 1.41 µM | 3.76 µM |  |  |
| CCN(CCCl)CCCCCNc1c2ccccc2nc2ccc(OC)cc12 |  | 9.74 µM |  | 2.23 µM |  | 5.98 µM |  | 3.09 |  |  |  | 1.8 µM |  | 44.3 µM |  | 2.69 µM |  |  |  | 3.78 |
| Cn1cnc([N+](=O)[O-])c1Sc1nnnn1C |  | 28.4 µM |  | 34.1 µM |  | 50.2 µM |  | 30.5 |  |  |  | 32 µM |  | 31.4 µM |  | 31.6 µM |  |  |  | > 100 |
| CCOP(=O)(OCC)/C(C#N)=C\c1ccsc1 |  | > 100 µM |  | > 100 µM |  | > 100 µM |  | > 100 |  |  |  | > 100 µM |  | > 100 µM |  | > 100 µM |  |  |  | > 100 |
| O=C1NC(=O)C(=Cc2c3ccccc3cc3ccccc23)C(=O)N1 |  | > 100 µM |  | > 100 µM |  | > 100 µM |  | > 100 |  |  |  | > 100 µM |  | > 100 µM |  | > 100 µM |  |  |  | > 100 |
| O=C1C=CC(=O)C2C1Cc1ccccc1C2c1ccccc1 (centres undefined) |  | > 100 µM |  | 33 µM |  | > 100 µM |  | > 100 |  |  |  | > 100 µM |  | > 100 µM |  | > 100 µM |  |  |  | > 100 |
| Cc1cc2c(c3nocc13)C(=O)c1ccccc1C2=O |  | > 100 µM |  | > 100 µM |  | > 100 µM |  | > 100 |  |  |  | > 100 µM |  | > 100 µM |  | > 100 µM |  |  |  | > 100 |
| O=C1OC(c2ccccc2)(c2ccccc2)c2ccc3ccc(F)cc3c21 |  | > 100 µM |  | > 100 µM |  | > 100 µM |  | > 100 |  |  |  | > 100 µM |  | > 100 µM |  | > 100 µM |  |  |  | > 100 |
| O=C1NC(O)c2ccccc2O1 (centres undefined) |  | > 100 µM |  | > 100 µM |  | > 100 µM |  | > 100 |  | > 100 µM |  | > 100 µM |  | > 100 µM |  | > 100 µM |  |  |  | > 100 |
